Measured values: patent publication EP0054873A1, “3,4-Di-substituted 1,2,5-oxadiazole-2 oxides, method for their preparation and pharmaceutical compositions containing them” (CASSELLA Aktiengesellschaft, priority 1980, dated 1982)

Tested on: Bastardhunden
Assay: Haemodynamic study of antianginal and antihypertensive effect in anaesthetised mongrel dogs
Assay type: in vivo
Conditions: change from steady state
Experimental: Die Untersuchungen über die antianginöse und antihypertensive Wirkung der Verbindungen der Formel I wurden an Bastardhunden beiderlei Geschlechts in Pentobarbital-Narkose (30 bis 40 mg/kg i.v.) oder in Urethan-Chloralose-Narkose (3 ml/kg Urethan-Chloralose-Gemisch i.v. = 20 mg/kg Chloralose und 250 mg/kg Urethan) durchgeführt. Die Beatmung der Tiere erfolgte mit einem Bird-Mark-7-Respi- rator. […] Während des gesamten Versuchs erhielten die Tiere mit Pentobarbital-Narkose eine Dauerinfusion von Pentobarbital i.v. = 4 mg/kg/6ml/h, um eine konstante Narkosetiefe zu gewährleisten; die Tiere mit Urethan-Chloralose-Narkose erhielten keine Dauerinfusion. Die Infusion wurde durch die Vena cephalica gegeben. Nach der Präparation des Versuchstieres wurde ca. 1 Stunde gewartet, bis sich alle haemodynamischen Parameter eingestellt hatten (steady state). Danach wurde mit dem eigentlichen Versuch begonnen.
Der systolische und diastolische Blutdruck wurde peripher in der Arteria femoralis über einen Statham-Druckaufnehmer gemessen. Ein über die Arteria carotis in den linken Ventrikel geschobener Millar-Tip-Katheter lieferte das Signal für den LVEDP(linksvcntrikulärer enddiastolischer Druck) und die Herzfrequenz. Mit einem zweiten, über die Vena ju-fularis eingeschobenen Tip-Katheter wurde der mittlere Blutdruck in der Arteria pulmonalis erfaßt. Die erhaltenen Ergebnisse sind in der folgenden Tabelle angegeben.

Compound | BDm Δ (mittlerer peripherer Blutdruck) (Dosis 0,05 mg/kg i.v.) | LVEDP Δ (linksventrikulärer enddiastolischer Druck) (Dosis 0,05 mg/kg i.v.) | PAP Δ (mittlerer Pulmonalarteriendruck) (Dosis 0,05 mg/kg i.v.) | BDm Δ (mittlerer peripherer Blutdruck) (Dosis 0,1 mg/kg i.v.) | LVEDP Δ (linksventrikulärer enddiastolischer Druck) (Dosis 0,1 mg/kg i.v.) | PAP Δ (mittlerer Pulmonalarteriendruck) (Dosis 0,1 mg/kg i.v.)
CNC(=O)c1c(C)no[n+]1[O-] [A] | -30 mmHg | -3 mm/Hg | -2 mmHg |  |  | 
COCCNC(=O)c1no[n+]([O-])c1C [B] |  |  |  | -25 mmHg | -2,5 mm/Hg | -1 mmHg
Cc1c(C(=O)NCc2cccnc2)no[n+]1[O-] [C] | -35 mmHg | -2 mm/Hg | -1 mmHg |  |  | 
